Literature values, collected in US7189722B2, “Aryl spirohydantoin CGRP receptor antagonists” (Merck & Co., Inc., priority 2003, dated 2007).
Read-outs that look alike come from different tables or passages of the source. Ends that are not written are not given here.

Legend:
[1] = system: middle meningeal artery diameter; details: rats, electrical stimulation of the dura mater, prior administration (Williamson et al. 1997)
facial blood flow [2] = details: rat, trigeminal ganglion stimulation (Escott et al. 1995)
facial blood flow [3] = details: marmoset, electrical stimulation of the trigeminal ganglion (Doods et al. 2000)

| Molecule | effect on increase of middle meningeal artery diameter [1] | effect on increase of facial blood flow (facial blood flow [2]) | effect on increase of facial blood flow (facial blood flow [3]) |
| --- | --- | --- | --- |
| CGRP(8-37): a peptide CGRP antagonist (VTHRLAGLLSRSGGVVKNNFVPTNVGSKAF; ends and bridges not checked; UniProt P06881 90-119, looked up, fragment) | blocked | inhibited | – |
| NCCCC[C@H](NC(=O)[C@@H](Cc1cc(Br)c(O)c(Br)c1)NC(=O)N1CCC(N2Cc3ccccc3NC2=O)CC1)C(=O)N1CCN(c2ccncc2)CC1 [BIBN4096BS] | – | – | blocked |
